According to US8143246B2, “1-(4-(pyridin-2-yl)benzyl)imidazolidine-2,4-dione derivatives” (MSD OSS B.V., priority 2008, dated 2012):

Experiments:
[1] = system: mechanical allodynia induced by spinal nerve ligation in rats; assay: Rat (Chung) model of neuropathic pain; format: in vivo; settings: for Withdrawal threshold (g) at peak effect: p.o., male Wistar rats, von Frey, mean ± s.e.m.
Description: The Rat (Chung) Model of Neuropathic Pain
In this model, mechanical allodynia is induced by tight ligation of the left L5 spinal nerve.
Male Wistar rats (228-301 g body weight at time of surgery) were employed in the study. Rats were placed on an elevated (˜40 cm) mesh floor in perspex boxes and the rats' withdrawal threshold to a mechanical stimulus (calibrated von Frey filaments) was measured using filaments of increasing force (2.6-167 mN) as described above. The von Frey filaments were applied to the plantar surface of the paw and threshold response determined using the up and down method. A positive response was noted if the paw was sharply withdrawn. A cut-off of 15 g was selected as the upper limit for testing. Following baseline measurements each animal was anaesthetised and the L5 spinal nerve tightly ligated. The animals were allowed to recover from the surgery for a period of at least three days. On the day of drug administration the paw withdrawal thresholds were re-measured (0 min). Immediately after this reading, the rats were dosed orally with vehicle or test compound and readings measured at various time points after compound administration.
Data were expressed as mean±s.e.m. Statistical analysis was performed using the Kruskal-Wallis one-way analysis of variance, a non-parametric statistical test. Each of the treatment groups were then compared against the vehicle group, using the non-parametric Dunn's test.

[2] = system: mechanical hyperalgesia induced by complete Freund's adjuvant in rats; assay: Mechanical hyperalgesia in the rat (CFA inflammatory pain); format: in vivo; settings: for % Attenuation of hyperalgesia (peak effect): p.o., male Wistar rats, Randall-Sellito, 24 h after CFA, mean ± s.e.m.
Description: Mechanical Hyperalgesia in the Rat
In this rat model of inflammatory pain, inflammation is induced by subcutaneous injection of complete Freund's adjuvant (CFA) into the hind paw. The associated mechanical hyperalgesia is quantified by measuring the reduction in paw withdrawal threshold (PWT) to mechanical compression the paw.
Experiments were conducted using male Wistar rats weighing (141-175 g). In brief, the rats' paw withdrawal threshold (PWT) to a mechanical compression of the hind paw was measured (baseline reading) using a Randall-Sellito apparatus (Ugo Basile). A cut-off of 20 g was employed to minimise tissue damage to the paw. The animals were then lightly anaesthetised with isoflurane (1-3%) and complete Freund's adjuvant (0.1 ml per paw) was injected subcutaneously (s.c.) into the plantar surface of the left hind paw. The animals were then returned to their home cage and left for the inflammation to develop. Twenty four hours after CFA injection, PWT's were re-measured (0 min) and immediately after this reading, rats were dosed orally with either vehicle or test compound (4.4-43.8 μmol/kg p.o. of compound 12). Readings were then made at 3 h post administration. Data were plotted as mean±s.e.m. and compared between groups using the Kruskal-Wallis one-way analysis of variance, a non-parametric statistical test. […] The percent attenuation of mechanical hyperalgesia is calculated as follows: […]

CC(C)CN1C(=O)CN(Cc2ccc(-c3cccc(CN4CCCCC4)n3)cc2)C1=O [Example 12, 3-Isobutyl-1-(4-(6-(piperidin-1-ylmethyl)pyridin-2-yl)benzyl)imidazolidine-2,4-dione]
Effect on mechanical allodynia ([1]; oral, 120 and 180 min post drug administration): attenuated mechanical allodynia in a dose-dependent fashion
Minimum effective dose (MED) ([1]; oral, mechanical allodynia): 43.8 µmol/kg
Withdrawal threshold (g) at peak effect ([1]; 4.4 μmol/kg): 2.40 ± 0.64 g
Withdrawal threshold (g) at peak effect ([1]; 13.2 μmol/kg): 4.32 ± 1.63 g
Withdrawal threshold (g) at peak effect ([1]; 43.8 μmol/kg, p ≦ 0.01 vs vehicle): 8.97 ± 2.21 g
Effect on mechanical hyperalgesia induced by CFA ([2]; oral, 4.4-43.8 μmol/kg): reversed mechanical hyperalgesia induced by CFA in a dose-dependent fashion
MED ([2]; oral, CFA-induced mechanical hyperalgesia): 13.2 µmol/kg
% Attenuation of hyperalgesia (peak effect) ([2]; 4.4 μmol/kg): 58.64 ± 27.32%
% Attenuation of hyperalgesia (peak effect) ([2]; 13.2 μmol/kg, p ≦ 0.01 vs vehicle): 69.70 ± 12.88 %
% Attenuation of hyperalgesia (peak effect) ([2]; 43.8 μmol/kg, p ≦ 0.001 vs vehicle): 116.74 ± 23.78 %
